“And” between values parts separate entries of the source, which are not always exact repeats. Equal values may be shown once.
Assays:
[1] = tested on: adult human dermal fibroblasts (CRL-2352); experiment: Effect of FGF2 and oxygen level on proliferation and in vitro lifespan (population doublings to senescence); type: cell-based; conditions: FGF2 10 ng/ml
[2] = tested on: adult human dermal fibroblasts (CRL-2352); experiment: as above; type: cell-based
Method: Adult human fibroblasts (cell line CRL-2352) derived from connective tissue isolated from tissue derived from a below knee amputation of a person were received from American type Tissue Culture Collection (ATCC) (Manassas, Va.) as cryopreserved vials and were stored in liquid nitrogen until use. Cells were thawed at 37 C and added dropwise to 10 ml of basal culture medium (CM-1A, 45% DMEM without L-gln or phenol red (MediaTech, Manassas, Va.) with 4 mM L-Gln (MediaTech), 45% Hams F12 Medium (MediaTech), and 10% Fetalclone III (Hyclone, Logan, Utah)). The cell suspension was centrifuged at 700×g for 5 min, the medium aspirated and the pellet resuspended in fresh CM1A culture medium. Cells were seeded at a density of 0.5×106 in 10 ml of medium in T75 tissue culture flasks (BD Falcon). Cultures were carried out in a 37 C incubator in a humidified environment of 5% CO2, 5% O2, 90% N2. Cells were passaged at routine intervals at approximately 70-90% confluence using Trypsin-EDTA solution (MediaTech) diluted 1:5 in DPBS without Ca2+/Mg2+ (MediaTech). At each passage, cells were counted using a Levy Counting chamber (Hausser Scientific) and the number of population doublings calculated as log 2. For comparative studies, human recombinant FGF2 (either Invitrogen or Chemicon) was supplemented into CM1A at 4 ng/ml (medium designated CM2A) from a 100 μg/ml stock solution in DPBS (MediaTech).
Cells were passaged continuously at either 3 or 4 day intervals without interruption until in vitro senescence was reached. Two replicate T25 vessels of cells for each treatment (with or without FGF2) were seeded at each passage with 100,000 cells per vessel. The average number of population doublings (PDs) was calculated at each passage and cumulative PDs plotted versus time (days) in culture (FIG. 1).
Cells were thawed and seeded at equal density into T25 cell culture flasks (BD Falcon) and cultured at 37° C., 5% CO2, balance air (high O2); and 37° C., 5% CO2, 5% O2, 90% N2 (low O2). For each oxygen tension level, cells were also cultured with and without FGF2 (4 ng/ml). Cells were passaged at 3 or 4 day intervals, counted and 100,000 cells re-seeded at each passage. The number of population doublings at each passage was determined and cumulative population doublings compared between low and high O2 treatment groups. In addition, at day 28 of culture, FGF2 was removed from a population of cells and the culture continued to monitor the long term effect of previous culture with FGF2.
Primary adult human dermal fibroblasts from connective tissue isolated from tissue biopsy from a below knee amputation of a person were received from ATCC(CRL-2352) at passage 2. Cells were cultured in medium consisting of DMEM:Ham's F12 ([…], MediaTech) with 10% Fetalclone III (Hyclone, Logan, Utah). The DMEM (without L-Gln or phenol red) was supplemented with 4 mM fresh L-Gln (MediaTech) prior to use. Cultures were carried out in a 37° C. incubator in a humidified environment of 5% CO2, 5% O2, and 90% N2. The number of population doublings calculated as log2. Cells were seeded at 100,000 cells per T25 flask at each passage (Falcon). […] Human muscle derived fibroblasts were derived from surplus muscle tissue from the calf flexor muscle used for a surgical knee repair in an adult. Tissue was rinsed in Leibowitz L-15 medium (MediaTech) containing 10 μg/ml gentamicin (Invitrogen) and 2.5 μg/ml fungizone (Hyclone) and minced using a sterile scalpel and digested with 1800 units/ml collagenase Type IV for 1 hour at 37° C. Cell lines were established by culture at 5% O2 from the beginning and working stocks cryopreserved at passage 2.

Substance: FGF2: human recombinant FGF2 (Invitrogen, Chemicon or Protide), basic fibroblast growth factor
- effect on adult fibroblast proliferation at 10 ng/ml [1]: halted adult fibroblast proliferation
- population doublings at senescence, low O2 with FGF2 ([2]; FGF2 4 ng/ml, 5% O2): 65 PDs and 70 PDs
- proliferation rate versus cells without FGF2 ([2]; FGF2 4 ng/ml, 5% O2): proliferated more rapidly
- additional population doublings achieved by addition of FGF2 (on average) ([2]; FGF2 4 ng/ml, 5% O2, until replicative senescence): 19 population doublings
- population doublings at senescence, atmospheric oxygen with FGF2 ([2]; FGF2 4 ng/ml, atmospheric oxygen): 49 PDs and 50 PDs
- cell morphology ([2]; FGF2, 5% O2): smaller cells with a more spindle shape
- karyotype ([2]; FGF2/low oxygen-treated fibroblasts): maintained normal karyotype
- increase in longevity / cell passage over primary cells cultured without these conditions ([2]; FGF2 and low oxygen conditions): two fold increase
- number of passages observed ([2]; FGF2 and low oxygen conditions, primary cells typically about 20 to 30): 70 times

Source: patent publication US9290740B2, “Use of basic fibroblast growth factor in the de-differentiation of animal connective tissue cells” (Worcester Polytechnic Institute, priority 2008, dated 2016)
